From patent publication US10774114B2, “Respiratory syncytial virus (RSV) replication inhibitors” (priority 2014, dated 2020) come the findings set out here.

Data set [1] has as its system rHRSV-Luc. The data set can be described thus: In vivo mice luciferase assay (rHRSV-Luc-infected mice). Conditions: intranasal, 0.6 mg/ml, 50 μL in PBS, repeated at days 2 and 4; 6x10^4 PFU rHRSV-Luc.
Excerpt: In Vivo Mice Luciferase Assay.
Female BALB/c mice were purchased from the Centre d'ElevageR. Janvier (Le Genest Saint-Isle, France) and were used around 8 weeks of age. Mice strains were bred in a pathogen-free animal facility. Mice were fed normal mouse chow and water ad libitum and were raised and housed under standard conditions with air filtration. For infection experiments, mice were housed in cages inside stainless steel isolation cabinets that were ventilated under negative pressure with high-efficiency particulate air-filtered air. Mice were anesthetized by a mixture of ketamine and xylazine (1 and 0.2 mg per mouse, respectively) and infected IN with 50 μl of PBS containing 6×10^4 PFU of rHRSV-Luc. Body temperature and body weight were monitored at days 3-10. For in vivo imaging, mice were anesthetized. Alternatively, mice were killed at different time points, and lungs were then collected. For each time point, experiments were done in quadruplicate. […] Oral treatments were administered 1 h prior to RSV inoculation and then once on day 2 and on day 4. This experiment was repeated once.
Data set [2] deals with RSV-mCherry virus. The note with it: read-out: EC50, inhibition of viral replication; Hep2 cells infected with RSV-mCherry, peptides added post-infection, fluorescence read at 48 h.
Description: HEp-2 cells were seeded in 96 well plates and infected with 500 PFU of rHRSV-Cherry virus. Following viral infection, cells were incubated in the presence of serial dilutions of stapled peptides. The red fluorescence was read at 48 h post infection by automatic counting.
rHRSV-mCherry Inhibition Assay.
HEp-2 cells were seeded at 5×10^4 cells per well in 96 well plates the day before and infected for 2 hours with 500 PFU of RSV-mCherry. The medium was then changed against MEM without phenol red medium containing dilutions of peptides. Each point of peptide dilution was made in duplicate. Plates were incubated 48 h at 37° C. and mCherry fluorescence measurement was performed using a spectrofluorometer (Tecan infinite M200PRO) with excitation and emission wavelengths of 580 and 620 nm, respectively (expressed in relative fluorescence units RFU). Non-infected HEp-2 cells were used as standards for fluorescence background levels.
Next the potential activity of stapled peptides was tested on infected cells. Hep2 cells were infected with a RSV-mCherry virus engineered by reverse genetics (Rameix-Welti et al, Nat Comm., 2014), and increasing concentrations of stapled peptides were added post-infection to study their effect on viral replication.
Data set [3] is described as follows: Far-UV CD spectroscopy (alpha-helical content). It is filed as physicochemical. The note with it: 10 mM phosphate buffer, pH 7.5. How it is done:
FIGS. 7A-7C: Far-UV CD spectra of stapled peptides in 10 mM phosphate buffer, pH 7.5. […] HEVS 115-129.
CD experiments were performed on a Jasco-810 or on a Chirascan spectropolarimeter in a thermostated cell holder at 20° C. The samples were prepared in 10 mM phosphate buffer, pH 7.5, at a peptide concentration of 25 μM for HEVS 73-79 or […] for the other peptides. The far-UV spectra were recorded at 25° C. by step scan from 190 nm to 250 nm with a scan rate of 100 nm per min using a bandwidth of 1 nm and an integration time of 1 s. Each spectrum was the average of 5 scans. The spectra were substracted from buffer baseline and smoothed using the FFT filter (Jasco Software, Tokyo, Japan). The data were converted to per residue molar ellipticity units [Θ] (deg.cm^2.dmol^−l.residue^−1). The percentage of helicity was calculated as follows:
[formula] whereby CD222=molar ellipticity [e] at 222 nm in [mdeg], N=number of amino acids in the peptide and C=peptide molar concentration [mol/1].

In data set [4] the test system is Hep2 cells. In words: in vitro. In kind it is cell-based. The note with it: at a concentration of 100 μM. How it is done:
(§1) HEp-2 (ATCC number CCL-23) and BHK-21 (clone BSRT7/5) cells were maintained in Eagle's miminum essential medium (EMEM) and Dulbecco's modified Eagle's medium (DMEM), respectively, supplemented with 10% FCS, 2 mM L-glutamine, and penicillin-streptomycin solution. The cells were grown in an incubator at 37° C. in 5% CO2. Cytotoxicity assays were done with the CellTiter-Glo Luminescent cell viability assay (Promega). Cells were transfected using Lipofectamine 2000 (Invitrogen, Cergy-Pontoise, France) as described by the manufacturer.

Data set [5] can be described thus: in vitro. In kind it is cell-based. The note with it: human. How it is done:
as §1

Where a SMILES comes first, the peptide text is derived from it. Bridges are numbered along the chain shown (N, C = ends). [ ]: non-standard residue; d: D form. R8 = C=CCCCCCC[C@@](C)(N)C(=O)O; R5 = C=CCCC[C@@](C)(N)C(=O)O; S5 = C=CCCC[C@](C)(N)C(=O)O

For the molecule `CC[C@H](C)[C@H](NC(=O)[C@]1(C)CCCC=CCCCCCC[C@@](C)(NC(=O)[C@H](CC(N)=O)NC(=O)[C@H](CC(N)=O)NC(=O)[C@H](C)NC(=O)[C@H](CC(=O)O)NC(=O)[C@H](CCC(=O)O)NC(=O)CNC(=O)[C@H](Cc2c[nH]cn2)NC(=O)[C@H](Cc2ccccc2)NC(=O)[C@H](CCC(=O)O)NC(C)=O)C(=O)N[C@@H](C)C(=O)N[C@@H]([C@@H](C)O)C(=O)N[C@@H](CCCCN)C(=O)N[C@@H](Cc2ccccc2)C(=O)N[C@@H](CC(C)C)C(=O)N[C@@H](CCC(=O)O)C(=O)N1)C(=O)N[C@@H](CCCCN)C(=O)NCC(=O)N[C@@H](CCCCN)C(=O)N[C@@H](Cc1ccccc1)C(=O)N[C@@H](C)C(=O)N[C@@H](CO)C(N)=O` [HEVS 124], the “luciferase activity (bioluminescence) in treated mice” value in data set [1] was “significant reduction”. Further, the EC50 (as a rule, the concentration needed to bring the measured effect to its halfway point) in data set [2] stood at 11 µM.
Turning to EDANNKATKFLESIKGKFAS [HEVS 73], the “folding state by far UV CD” value in data set [3] was “largely unfolded”.
Take `CC[C@H](C)[C@H](NC(=O)[C@]1(C)CCCC=CCCCCCC[C@@](C)(NC(=O)[C@H](CC(N)=O)NC(=O)[C@H](CC(N)=O)NC(=O)[C@H](C)NC(=O)[C@]2(C)CCCC=CCCC[C@@](C)(NC(=O)[C@H](Cc3ccccc3)NC(=O)[C@H](CCC(=O)O)NC(C)=O)C(=O)NCC(=O)N[C@@H](CCC(=O)O)C(=O)N2)C(=O)N[C@@H](C)C(=O)N[C@@H]([C@@H](C)O)C(=O)N[C@@H](CCCCN)C(=O)N[C@@H](Cc2ccccc2)C(=O)N[C@@H](CC(C)C)C(=O)N[C@@H](CCC(=O)O)C(=O)N1)C(=O)N[C@@H](CCCCN)C(=O)NCC(=O)N[C@@H](CCCCN)C(=O)N[C@@H](Cc1ccccc1)C(=O)N[C@@H](C)C(=O)N[C@@H](CO)C(N)=O` [HEVS 126, EFR5GES5ANNR8ATKFLES5IKGKFAS] (Ac-EF[R5]GE[S5]ANN[R8]ATKFLE[S5]IKGKFAS-NH2; staple 3-6, 10-17): the cytotoxicity result in data set [4] is reported as “cytotoxic”. In addition, in data set [2], the EC50 is 3.5 µM.
Take `CC[C@H](C)[C@@H]1NC(=O)[C@](C)(NC(=O)[C@H](CCC(=O)O)NC(=O)[C@H](CC(C)C)NC(=O)[C@H](Cc2ccccc2)NC(=O)[C@H](CCCCN)NC(=O)[C@@H](NC(=O)[C@H](C)NC(=O)[C@H](CCCCN)NC(=O)[C@H](CC(N)=O)NC(=O)[C@H](CC(N)=O)NC(=O)[C@H](C)NC(=O)[C@H](CC(=O)O)NC(=O)[C@H](CCC(=O)O)NC(C)=O)[C@@H](C)O)CCCCCCC=CCCC[C@@](C)(C(N)=O)NC(=O)[C@H](C)NC(=O)[C@H](Cc2ccccc2)NC(=O)[C@H](CCCCN)NC(=O)CNC(=O)[C@H](CCCCN)NC1=O` [HEVS 79] (Ac-EDANNKATKFLE[R8]IKGKFA[S5]-NH2; staple 13-20): the EC50 in data set [2] is roughly 80 µM.
For the molecule `CC[C@H](C)[C@@H]1NC(=O)[C@@](C)(NC(=O)[C@H](CCC(=O)O)NC(=O)[C@H](CC(C)C)NC(=O)[C@H](Cc2ccccc2)NC(=O)[C@H](CCCCN)NC(=O)[C@@H](NC(=O)[C@H](C)NC(=O)[C@H](CCCCN)NC(=O)[C@H](CC(N)=O)NC(=O)[C@H](CC(N)=O)NC(=O)[C@H](C)NC(=O)[C@H](CC(=O)O)NC(=O)[C@H](CCC(=O)O)NC(C)=O)[C@@H](C)O)CCCC=CCCC[C@@](C)(C(=O)N[C@@H](Cc2ccccc2)C(=O)N[C@@H](C)C(=O)N[C@@H](CO)C(N)=O)NC(=O)CNC(=O)[C@H](CCCCN)NC1=O` [HEVS 78] (Ac-EDANNKATKFLE[S5]IKG[S5]FAS-NH2; staple 13-17), the cytotoxic concentration (CC50) (in general, the concentration giving 50% cytotoxicity) in data set [5] is roughly 40 µM. For the same molecule, the EC50 in data set [2] came to 15 µM.
Take `CC[C@H](C)[C@H](NC(=O)[C@]1(C)CCCC=CCCCCCC[C@@](C)(NC(=O)[C@H](CC(N)=O)NC(=O)[C@H](CC(N)=O)NC(=O)[C@H](C)NC(=O)[C@H](CC(=O)O)NC(=O)[C@H](CCC(=O)O)NC(C)=O)C(=O)N[C@@H](C)C(=O)N[C@@H]([C@@H](C)O)C(=O)N[C@@H](CCCCN)C(=O)N[C@@H](Cc2ccccc2)C(=O)N[C@@H](CC(C)C)C(=O)N[C@@H](CCC(=O)O)C(=O)N1)C(=O)N[C@@H](CCCCN)C(=O)NCC(=O)N[C@@H](CCCCN)C(=O)N[C@@H](Cc1ccccc1)C(=O)N[C@@H](C)C(=O)N[C@@H](CO)C(N)=O` [HEVS 77, EDANNR8ATKFLES5IKGKFAS] (Ac-EDANN[R8]ATKFLE[S5]IKGKFAS-NH2; staple 6-13): the half-maximal effective concentration (EC50) in data set [2] is 60 µM.
